Test systems include A498; ACHN; HCC 2998; HCT-15; IGROV-1; K562; M14; MDA-MB-231; NCI-H226; OVCAR-5; SR; TK-10; U-251; UACC-62; CCRF-CEM; Hs-578T; MOLT-4; SK-MEL-5; UACC-257; MCF7.
What all share (assay): inhibition of tumour cell growth, NCI panel, 48 h

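Protocol summary: plate cells (96-well), add compound at 5 concentrations, incubate 48 h, interpolate endpoints linearly. GI50 marks 50% less growth.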 The source made the active and inactive calls. Rule as the data show it: active = GI50 up to about 1.1 µM and inactive = higher.

Consider `N#Cc1c(-c2ccc(Cl)cc2)cc(-c2ccc(Nc3ccnc4cc(Cl)ccc34)cc2)nc1N`, for which the GI50 in the experiment on A498 is > 100 µM (inactive); in the experiment on ACHN it was > 100 µM (inactive); in the experiment with HCC 2998, > 100 µM (inactive); in the experiment on HCT-15 it was more than 100 µM; in the experiment on IGROV-1, > 100 µM (inactive); with K562 it was > 100 µM (inactive). The GI50 was > 100 µM (inactive) in the experiment on M14; > 100 µM (inactive) in the experiment on MDA-MB-231; > 100 µM (inactive) in the experiment on NCI-H226; > 100 µM (inactive) in the experiment with OVCAR-5; 5.45 µM (inactive) in the experiment with SR; > 100 µM (inactive) in the experiment with TK-10. For the same compound, the values for the GI50 in the experiment with U-251 and with UACC-62 were 97.1 µM (inactive) and > 100 µM (inactive), respectively.

In the case of `CNS(=O)(=O)c1ccc2c(c1)/C(=C1/Nc3ccccc3C1=O)C(=O)N2`, the GI50 in the experiment with A498 was > 100 µM (inactive); in the experiment on ACHN, > 100 µM (inactive); in the experiment with CCRF-CEM, 30.8 µM (inactive); in the experiment with HCC 2998 it was > 100 µM (inactive); in the experiment with HCT-15 it was 49.4 µM; with Hs-578T, 3.41 µM (inactive). In addition, the GI50 with IGROV-1 was 18.7 µM (inactive); with K562, > 100 µM (inactive); in the experiment on M14, > 100 µM (inactive); with MDA-MB-231 it was 2.63 µM (inactive); in the experiment on MOLT-4, 39.6 µM (inactive); in the experiment with NCI-H226, > 100 µM (inactive). For the same compound, the GI50 in the experiment on OVCAR-5 is > 100 µM (inactive); in the experiment with SK-MEL-5 it was 5.2 µM (inactive); with TK-10 it was > 100 µM (inactive); in the experiment on U-251 it was 5.04 µM (inactive); in the experiment on UACC-257, > 100 µM (inactive); with UACC-62, > 100 µM (inactive).

Regarding `COc1cc(/C=C2/C[C@H]3[C@@H]4CC=C5C[C@@H](O)CC[C@]5(C)[C@H]4CC[C@]3(C)NC2=O)cc(OC)c1OC`, the GI50 in the experiment with A498 was 5.24 µM (inactive); with ACHN, 18.9 µM (inactive); with CCRF-CEM, 47.8 µM (inactive); in the experiment on HCC 2998, 10.9 µM (inactive); in the experiment with HCT-15 it was 16.3 µM; in the experiment with IGROV-1, 11.8 µM (inactive). The GI50 was 40.3 µM (inactive) with K562; 30.5 µM (inactive) in the experiment on M14; 11.8 µM (inactive) with MCF7; 20.1 µM (inactive) in the experiment with MDA-MB-231; 21.6 µM (inactive) in the experiment on MOLT-4; 22 µM (inactive) in the experiment on NCI-H226. In addition, the GI50 was 29.6 µM (inactive) in the experiment with OVCAR-5; 6.7 µM (inactive) in the experiment with SK-MEL-5; 39.8 µM (inactive) in the experiment with SR; 23.6 µM (inactive) with TK-10; 22.5 µM (inactive) in the experiment on U-251; 27.5 µM (inactive) in the experiment with UACC-257. In addition, in the experiment on UACC-62, the GI50 is 16.3 µM (inactive).

With `O=C1/C(=C/c2ccc3c(c2)CCC3)Cc2cc3c(cc21)CCC3`, the GI50 in the experiment on A498 was > 100 µM (inactive); with ACHN, > 100 µM (inactive); in the experiment with CCRF-CEM, > 100 µM (inactive); in the experiment with HCC 2998, > 100 µM (inactive); in the experiment with HCT-15 it was more than 100 µM; in the experiment on IGROV-1, > 100 µM (inactive). In addition, the GI50 is > 100 µM (inactive) in the experiment with K562; > 100 µM (inactive) with M14; > 100 µM (inactive) in the experiment with MCF7; 76.9 µM (inactive) in the experiment on MDA-MB-231; > 100 µM (inactive) in the experiment with MOLT-4; > 100 µM (inactive) in the experiment on NCI-H226. In addition, the GI50 in the experiment on OVCAR-5, in the experiment with SK-MEL-5, with SR, in the experiment on TK-10, with U-251 and in the experiment with UACC-257 was > 100 µM (inactive) each time. Further, the GI50 in the experiment on UACC-62 was > 100 µM (inactive).

As to `COc1ccc([S+]([O-])Cc2cc(OC)ccc2OC)cc1` (configuration not stated), the GI50 is > 100 µM (inactive) in the experiment on A498; > 100 µM (inactive) in the experiment on ACHN; > 100 µM (inactive) in the experiment on CCRF-CEM; > 100 µM (inactive) with HCC 2998; more than 100 µM in the experiment on HCT-15; > 100 µM (inactive) with IGROV-1. Also, the GI50 in the experiment with K562, in the experiment with M14, with MCF7, in the experiment with MDA-MB-231, with MOLT-4 and in the experiment on NCI-H226 was > 100 µM (inactive) throughout. The GI50 in the experiment on OVCAR-5, with TK-10, in the experiment on U-251, in the experiment on UACC-257 and in the experiment on UACC-62 was > 100 µM (inactive) in each case.

Take `CC1=CC(=O)C(=CN2C(=O)/C(=C\c3cccnc3)NC2=S)C(=O)O1`: the GI50 was > 100 µM (inactive) in the experiment with ACHN; > 100 µM (inactive) in the experiment with HCC 2998; more than 100 µM in the experiment on HCT-15; > 100 µM (inactive) in the experiment with IGROV-1; > 100 µM (inactive) in the experiment with M14; > 100 µM (inactive) in the experiment on MCF7. For the same compound, the GI50 in the experiment with MDA-MB-231, in the experiment with MOLT-4, in the experiment with NCI-H226, with OVCAR-5, with SK-MEL-5 and in the experiment on TK-10 was > 100 µM (inactive) each time. In addition, the GI50 with U-251 and with UACC-257 was > 100 µM (inactive) throughout.

For the compound `C(=N\c1cc2cc(Sc3ccccc3)ccc2[nH]1)/c1ccccc1`, the GI50 in the experiment on A498 is 1.83 µM (inactive); in the experiment on ACHN, > 12.5 µM (inactive); in the experiment with CCRF-CEM, > 12.5 µM (inactive); in the experiment with HCC 2998, 6.41 µM (inactive); in the experiment with HCT-15, more than 12.5 µM; with Hs-578T it was > 12.5 µM (inactive). Further, the GI50 with K562 is 11 µM (inactive); in the experiment on M14 it was > 12.5 µM (inactive); with MCF7 it was > 12.5 µM (inactive); in the experiment on MOLT-4, > 12.5 µM (inactive); with SK-MEL-5 it was 10.6 µM (inactive); in the experiment on SR it was 1.32 µM (inactive). Also, the values for the GI50 in the experiment on UACC-257 and with UACC-62 were > 12.5 µM (inactive) and 7.11 µM (inactive), respectively.

`CCCCOc1ccc(S(=O)(=O)/N=C(\NN)Nc2ccc(Cl)cc2)cc1`: the GI50 in the experiment with A498 was 47.1 µM (inactive); in the experiment on ACHN, 69.7 µM (inactive); in the experiment with CCRF-CEM, 20 µM (inactive); with HCT-15 it was 36 µM; in the experiment with IGROV-1, 26.1 µM (inactive); with K562 it was 31.7 µM (inactive). In addition, the GI50 is 24.2 µM (inactive) with M14; 32.1 µM (inactive) with MCF7; 20.2 µM (inactive) with MDA-MB-231; 23.3 µM (inactive) in the experiment with MOLT-4; 29.6 µM (inactive) with NCI-H226; 21 µM (inactive) in the experiment with OVCAR-5. For the same compound, the GI50 with SK-MEL-5 is 35.9 µM (inactive); in the experiment on SR it was 21.2 µM (inactive); in the experiment on TK-10, 43.5 µM (inactive); with U-251, 16.4 µM (inactive); in the experiment with UACC-257 it was 23.1 µM (inactive); in the experiment on UACC-62 it was > 100 µM (inactive).

For the compound `CCN(CC)C(=O)CCNC(C)Cc1c[nH]c2ccccc12` (configuration not stated), the GI50 was > 100 µM (inactive) with A498; > 100 µM (inactive) in the experiment on ACHN; > 100 µM (inactive) in the experiment with CCRF-CEM; > 100 µM (inactive) in the experiment on HCC 2998; more than 100 µM with HCT-15; > 100 µM (inactive) in the experiment with Hs-578T. In addition, the GI50 in the experiment on IGROV-1, with K562, in the experiment on M14, in the experiment on MDA-MB-231, in the experiment on MOLT-4 and in the experiment on NCI-H226 was > 100 µM (inactive) each time. In addition, the GI50 in the experiment on OVCAR-5, with SK-MEL-5, in the experiment on SR, with TK-10, with U-251 and in the experiment on UACC-257 was > 100 µM (inactive) in each case. The GI50 in the experiment with UACC-62 is > 100 µM (inactive).

(Values after ChEMBL document CHEMBL1201862, “PubChem BioAssay data set” (2004).)
